Tests used:
[1] = tested on: human normal gastric mucosa cell (GES-1); assay: Proliferative inhibition of human normal cell (MTT); assay type: cell-based; details: GES1; MTT, human normal gastric mucosa cell; read-out: GES-1 IC50
Description: In order to determine the selective cell toxicity of selected compounds. We subsequently conducted a proliferative inhibition assay with human normal gastric mucosa cell (GES-1).

PARP = assay: Western blot, PARP; assay type: cell-based, human; details: SGC-7901, 1, 2 and 4 μM, 48 h
Method: (§1) An equivalent volume of 5 × SDS-sample buffer was added to cell lysates and boiled for 10 min. The supernatants were subjected to electrophoresis on SDS-PAGE gels and transferred to PVDF membrane by using a Bio-Rad apparatus. Membranes were blocked for 3 h at room temperature in TBST containing 5% non-fat dried milk and probed overnight at 4 °C with antibodies. CyclinD1 (abcam, ab134175, 1:10000), CDC25A (abcam, ab156574, 1:1000), CDC25C (abcam, ab32051, 1:1000), bcl-2 (abcam, ab32124,1:1000), bax (abcam, ab32503, 1:1000), PARP (abcam, ab191217, 1:1000), γH2AX (abcam, ab81299, 1:5000), dyskerin (abcam, ab156877, 1:1000), NHP2 (abcam, ab180498, 1:1000), NOP10 (abcam, ab133726, 1:1000) antibody was performed with rabbit primary antibody. Otherwise, β-actin (ZSGB-BIO, 1:1000) detection was performed with mouse primary antibody which was served as internal controls. Protein bands of β-actin was visualised using peroxidase-labeled goat anti-mouse and others were visualised using peroxidase-labeled goat anti-rabbit secondary antibody (1:5000 dilution, 1 h, room temperature), and the protein expression signals were detected by the BeyoECL Plus (Beyotime).

Bcl-2/Bax = assay: Western blot, Bcl-2/Bax; assay type: cell-based, human; details: SGC-7901, 1, 2 and 4 μM, 48 h
Method: as §1

NOP10 = assay: Western blot, NOP10; assay type: cell-based, human; details: SGC-7901, 1, 2 and 4 μM, 48 h
Method: as §1

CDC25C = assay: Western blot, CDC25C; assay type: cell-based, human; details: SGC-7901, 1, 2 and 4 μM, 48 h
Method: as §1

CDC25A = assay: Western blot, CDC25A; assay type: cell-based, human; details: SGC-7901, 1, 2 and 4 μM, 48 h
Method: as §1

[2] = tested on: DEN-induced rat hepatic tumor; assay: In vivo tumor model, DEN-induced rat hepatic tumor (HE histopathology); details: DEN-induced SD rats, 50 mg·kg−1 orally once a day, 10 weeks
Method: SD rats, male, 120 ∼ 160 g. 120 rats were divided randomly into two groups containing 12 normal rats and 108 DEN model rats. Rats were gavaged daily with DEN 8 mg/kg, once a day, 6 days a week. Normal saline rats were given the same volume, molding to 10 weeks. 60 model rats were randomly divided into five groups, 12 rats in each group, continued to give DEN; normal rats were given normal saline, molding to 16 week, stopped giving DEN. Compound 5i treatment group from the 10th week, 50 mg·kg^−1 was orally given, once a day, for 10 consecutive weeks. Similar parts of left lobe of liver were taken and fixed by 4% polyformaldehyde solution, embedded in paraffin, sliced and HE stained, for histopathological observation.

dyskerin = assay: Western blot, dyskerin; assay type: cell-based, human; details: SGC-7901, 1, 2 and 4 μM, 48 h
Method: as §1

telomerase = molecular target: T1, telomerase (Homo sapiens, UniProt O14746); assay: Telomerase activity assay (TRAP-PCR-ELISA); assay type: biochemical; details: SGC-7901 cells extracts, 24-h treatment, mean ± SD
T1 construct: endogenous in cells; host or cells: SGC-7901
T1 sequence (O14746 whole entry): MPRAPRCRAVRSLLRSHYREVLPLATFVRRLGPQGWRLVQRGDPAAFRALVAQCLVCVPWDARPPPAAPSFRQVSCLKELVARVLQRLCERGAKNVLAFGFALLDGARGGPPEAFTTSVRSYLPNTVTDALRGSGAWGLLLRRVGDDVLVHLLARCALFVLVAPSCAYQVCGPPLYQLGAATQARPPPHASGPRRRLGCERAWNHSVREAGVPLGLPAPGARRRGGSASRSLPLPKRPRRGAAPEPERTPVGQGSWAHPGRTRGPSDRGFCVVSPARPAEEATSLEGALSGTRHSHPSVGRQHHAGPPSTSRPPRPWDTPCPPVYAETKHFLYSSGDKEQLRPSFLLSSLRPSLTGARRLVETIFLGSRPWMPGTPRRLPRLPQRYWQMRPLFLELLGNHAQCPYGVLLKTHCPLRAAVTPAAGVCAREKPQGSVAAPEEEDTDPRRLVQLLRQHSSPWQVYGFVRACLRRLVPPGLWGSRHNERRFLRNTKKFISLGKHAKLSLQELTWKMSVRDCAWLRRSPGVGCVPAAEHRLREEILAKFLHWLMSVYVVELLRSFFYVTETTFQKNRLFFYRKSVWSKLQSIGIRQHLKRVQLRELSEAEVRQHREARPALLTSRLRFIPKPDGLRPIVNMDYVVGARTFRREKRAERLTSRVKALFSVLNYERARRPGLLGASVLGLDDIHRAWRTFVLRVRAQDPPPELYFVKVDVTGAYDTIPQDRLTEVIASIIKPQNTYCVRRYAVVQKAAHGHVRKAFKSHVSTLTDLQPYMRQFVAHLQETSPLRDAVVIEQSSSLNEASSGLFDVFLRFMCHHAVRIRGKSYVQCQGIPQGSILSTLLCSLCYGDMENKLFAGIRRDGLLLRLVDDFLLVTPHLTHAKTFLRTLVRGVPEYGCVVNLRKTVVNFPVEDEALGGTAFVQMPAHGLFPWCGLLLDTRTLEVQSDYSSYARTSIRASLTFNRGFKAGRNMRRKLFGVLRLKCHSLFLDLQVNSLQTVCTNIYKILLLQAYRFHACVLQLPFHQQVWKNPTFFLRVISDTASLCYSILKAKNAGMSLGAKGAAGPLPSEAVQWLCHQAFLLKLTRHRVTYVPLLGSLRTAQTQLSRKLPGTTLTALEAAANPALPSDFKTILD
T1 sequence (O60832 whole entry partner): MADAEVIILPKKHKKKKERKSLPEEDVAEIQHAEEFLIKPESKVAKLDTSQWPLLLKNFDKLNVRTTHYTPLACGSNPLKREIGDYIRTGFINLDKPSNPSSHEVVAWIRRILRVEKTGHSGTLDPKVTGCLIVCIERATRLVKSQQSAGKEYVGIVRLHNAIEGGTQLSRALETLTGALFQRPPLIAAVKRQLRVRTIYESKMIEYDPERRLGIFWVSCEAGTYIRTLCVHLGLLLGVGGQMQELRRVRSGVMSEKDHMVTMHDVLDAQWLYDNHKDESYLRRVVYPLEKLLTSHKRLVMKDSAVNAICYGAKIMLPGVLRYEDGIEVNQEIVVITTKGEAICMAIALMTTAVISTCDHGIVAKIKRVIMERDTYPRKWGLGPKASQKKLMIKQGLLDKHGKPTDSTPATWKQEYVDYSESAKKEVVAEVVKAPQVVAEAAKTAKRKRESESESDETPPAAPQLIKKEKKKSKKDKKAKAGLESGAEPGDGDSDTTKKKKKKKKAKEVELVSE
T1 sequence (Q9NX24 whole entry partner): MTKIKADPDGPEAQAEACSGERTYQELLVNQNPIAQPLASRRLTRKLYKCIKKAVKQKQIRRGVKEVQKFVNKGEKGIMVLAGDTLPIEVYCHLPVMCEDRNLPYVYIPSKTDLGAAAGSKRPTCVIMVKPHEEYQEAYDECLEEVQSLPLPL
T1 sequence (Q9NPE3 whole entry partner): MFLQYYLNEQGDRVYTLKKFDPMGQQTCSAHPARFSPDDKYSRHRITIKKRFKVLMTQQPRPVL
T1 sequence (Q9NY12 whole entry partner): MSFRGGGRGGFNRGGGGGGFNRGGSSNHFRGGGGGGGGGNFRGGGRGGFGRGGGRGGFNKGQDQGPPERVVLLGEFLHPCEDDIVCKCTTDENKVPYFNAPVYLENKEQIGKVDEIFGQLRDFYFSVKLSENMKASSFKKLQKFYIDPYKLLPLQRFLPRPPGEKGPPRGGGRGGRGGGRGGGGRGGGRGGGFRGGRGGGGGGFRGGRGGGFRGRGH
Method: Inhibit of telomerase activity was tested using the TRAP-PCR-ELISA assay. In detail, the SGC-7901 cells were firstly maintained in DMEM medium (GIBCO, New York) supplemented with 10% fetal bovineserum (GIBCO, NewYork), streptomycin (0.1 mg/mL) and penicillin (100 IU/mL) at 37 °C in a humidified atmosphere containing 5% CO2. After trypsinisation, 5 × 10^4 cultured cells in logarithmic growth were seeded into T25 flasks (Corning, New York) and cultured to allow to adherence. The cells were then incubated with Staurosporine (Santa Cruz, Santa Cruz) and the drugs with a series of concentration as 60, 20, 6.67, 2.22, 0.74, 0.25 and 0.082 l g/mL, respectively. After 24-h treatment, the cells were harvested by cell scraper orderly following by washed once with PBS. The cells were lysed in 150 µL RIPA cell lysis buffer (Santa Cruz, Santa Cruz) and incubated on ice for 30 min. The cellular supernatants were obtained via centrifugation at 12,000 g for 20 min at 4 °C and stored at −80 °C. The TRAP-PCR-ELISA assay was performed using a telomerase detection kit (Roche, Basel, Switzerland) according to the manufacturer’s protocol. In brief, 2 µL of cell extracts were mixed with 48 µL TRAP reaction mixtures. PCR was then initiated at 94 °C, 120 s for predenaturation and performed using 35 cycles each consisting of 94 °C for 30 s, 50 °C for 30 s, 72 °C for 90 s. Then 20 µL of PCR products were hybridised to a digoxigenin (DIG)-labeled telomeric repeat specific detection probe. And the PCR products were immobilised via the biotin-labeled primer to a streptavidin-coated microtiter plate subsequently. The immobilised DNA fragment were detected with a peroxidase-conjugated anti-DIG antibody and visualised following addition of the stop regent. The microtitre plate was assessed on TECAN Infinite M200 microplate reader (Mannedorf, Switzerland) at a wavelength of 490 nm, and the final value were presented as mean ± SD.

[3] = tested on: human liver cancer cell SMMC-7721; assay: MTT anticancer assay, SMMC-7721; assay type: cell-based; details: 48 h exposure, mean ± SD
Method: The MTT was purchased from Sigma. Cell Cycle Analysis Kit and Apoptosis Analysis Kit were purchased from Bestbio (China). Mitochondrial membrane potential assay kit with JC-1 was purchased from Beyotime (China). All the materials were used as received without further purification unless noted specifically. The cell culture was maintained on DMEM medium (Hyclone, US) supplemented with 10% fetal bovine serum (Sijiqing, China), 100 U/mL penicillin and 100 µg/mL streptomycin in 25-cm^2 culture flasks at 37 °C humidified atmosphere with 5% CO2. Drugs were dissolved in DMSO and filtered through 0.22-µm pore-size filter units before addition to cell line appropriate media. When tumor cells were grown to log phase, diluting to 5 × 10^4 cells mL^−1 with the complete medium, 100 µL of the obtained cell suspension was added to each well of 96-well culture plates. The subsequent incubation was performed at 37 °C, 5% CO2 atmosphere for 48 h before subjecting to anti-proliferation assessment. After 48-h exposure period, 20 µL of PBS containing 5 mg·mL^−1 of MTT was added to each well. After 4 h, the medium was replaced by 150 µL DMSO to dissolve the purple formazan crystals produced. The absorbance at 492 nm of each well was measured on an ELISA plate reader. The data represented the mean of three experiments in triplicate and were expressed as means ± SD. The IC50 value was defined as the concentration at which 50% of the cells could survive. The following human tumor cell lines were used in the assay: human gastric cancer cells SGC-7901, human liver cancer cell SMMC-7721 and HepG2, human cervical cancer cell Hela and human glioma cell U87.

Compound: COc1cc(OC)c2c(=O)c(OCCCCN3CCN(C(=O)c4ccncc4)CC3)c(-c3cc(OC)c(OC)c(OC)c3)oc2c1 [Compound 5i, 3-(4-(4-isonicotinoylpiperazin-1-yl)butoxy)-5,7-dimethoxy-2-(3,4,5-trimethoxyphenyl)-4H-chromen-4-one]
- IC50 [1]: 3710 ± 330 µM
- PARP (western blot) (PARP): reduced
- proportion of Bcl-2/Bax (western blot) (Bcl-2/Bax): reduced
- NOP10 protein level (western blot) (NOP10): no significant changes
- expression of CAC25C (western blot) (CDC25C): significantly decrease
- expression of CDC25A (western blot) (CDC25A): significantly decrease
- pathological changes of rat hepatic tumor (HE staining) [2]: significantly improve pathological changes
- protein level of dyskerin (western blot) (dyskerin): significantly reduced
- IC50 (telomerase): 0.89 ± 0.17 µM
- IC50 [3]: 1.33 ± 0.14 µM
